Reference: PubChem BioAssay (NCI)
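GI50 is the concentration that inhibits growth by half. The concentration for full growth arrest is given as TGI.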

Tests used:
Assay in all cases: DTP human tumour cell line panel, 384-well format
[1] = tested on: OVCAR-8 ovarian
[2] = tested on: DU-145 prostate
[3] = tested on: OVCAR-5 ovarian
[4] = tested on: SF-295 CNS
[5] = tested on: NCI-H322M lung
[6] = tested on: RPMI-8226 leukemia
[7] = tested on: ACHN renal
[8] = tested on: SF-539 CNS
[9] = tested on: M14 melanoma
[10] = tested on: NCI-H23 lung
[11] = tested on: TK-10 renal
[12] = tested on: NCI/ADR-RES ovarian
[13] = tested on: T-47D breast
[14] = tested on: A549 NSCLC
[15] = tested on: UACC-257 melanoma
[16] = tested on: A498 renal
[17] = tested on: RXF 393 renal
[18] = tested on: HS 578T breast
[19] = tested on: BT-549 breast
[20] = tested on: IGROV1 ovarian
[21] = tested on: 786-0 renal
[22] = tested on: MALME-3M melanoma
[23] = tested on: SK-OV-3 ovarian
[24] = tested on: SF-268 CNS
[25] = tested on: UACC-62 melanoma
[26] = tested on: NCI-H460 NSCLC
[27] = tested on: MDA-MB-468 breast
[28] = tested on: U251 glioblastoma
[29] = tested on: HCT-15 colon
[30] = tested on: SW-620 colon
[31] = tested on: PC-3 prostate
[32] = tested on: MDA-MB-231 breast
[33] = tested on: CCRF-CEM leukemia
[34] = tested on: HCC-2998 colon
[35] = tested on: SR leukemia
[36] = tested on: SN12C renal
[37] = tested on: SNB-75 CNS
[38] = tested on: HOP-92 NSCLC
[39] = tested on: HOP-62 NSCLC
[40] = tested on: K-562 leukemia
[41] = tested on: MCF7 breast
[42] = tested on: HT29 colon
[43] = tested on: LOX IMVI melanoma
[44] = tested on: SNB-19 CNS
[45] = tested on: UO-31 renal
[46] = tested on: COLO 205 colon
[47] = tested on: MOLT-4 leukemia
[48] = tested on: CAKI-1 renal
[49] = tested on: KM12 colon
[50] = tested on: OVCAR-3 ovarian
[51] = tested on: MDA-MB-435 melanoma
[52] = tested on: HL-60(TB) leukemia
[53] = tested on: SK-MEL-28 melanoma
[54] = tested on: NCI-H226 lung
[55] = tested on: OVCAR-4 ovarian
[56] = tested on: SK-MEL-5 melanoma
[57] = tested on: EKVX NSCLC
[58] = tested on: NCI-H522 lung

`CN1CCN(c2nc(C3=C(c4c[nH]c5ccccc45)C(=O)NC3=O)c3ccccc3n2)CC1` showed a GI50 [1] of 13.8 µM, a TGI [1] of 27.6 µM and a GI50 [2] of 16.3 µM. The TGI [2] was 32.6 µM, the GI50 [3] was 20.8 µM and the TGI [3] was 44 µM. For the same compound, the GI50 [4] was 18.6 µM, the TGI [4] was 32.7 µM and the GI50 [5] was 16.3 µM. It also gave a TGI [5] of 31.2 µM, a GI50 [6] of 10.1 µM and a TGI [6] of 21.7 µM. The GI50 [7] was 15.5 µM, the TGI [7] was 30 µM and the GI50 [8] was 15 µM. The TGI [8] was 28.3 µM, the GI50 [9] was 13.9 µM and the TGI [9] was 26.8 µM. For the same compound, the GI50 [10] was 16.1 µM, the TGI [10] was 29.8 µM and the GI50 [11] was 17.8 µM. It also gave a TGI [11] of 44.2 µM, a GI50 [12] of 19.5 µM and a TGI [12] of 41.3 µM. It also gave a GI50 [13] of 20.2 µM, a TGI [13] of 35.7 µM and a GI50 [14] of 16.9 µM. For the same compound, the TGI [14] was 36.6 µM, the GI50 [15] was 13.6 µM and the TGI [15] was 26.5 µM. It also gave a GI50 [16] of 15.3 µM, a TGI [16] of 28.6 µM and a GI50 [17] of 15.1 µM. It also gave a TGI [17] of 28.4 µM, a GI50 [18] of 16.8 µM and a TGI [18] of 30.5 µM. It also gave a GI50 [19] of 13.5 µM, a TGI [19] of 26.3 µM and a GI50 [20] of 18.1 µM. It also gave a TGI [20] of 34.5 µM, a GI50 [21] of 13.8 µM and a TGI [21] of 26.9 µM. It also gave a GI50 [22] of 4.68 µM, a TGI [22] of 16.2 µM and a GI50 [23] of 18.1 µM. The TGI [23] was 38.8 µM, the GI50 [24] was 18.1 µM and the TGI [24] was 32.3 µM. It also gave a GI50 [25] of 15.4 µM, a TGI [25] of 28.8 µM and a GI50 [26] of 18.6 µM. The TGI [26] was 32.6 µM, the GI50 [27] was 18.3 µM and the TGI [27] was 32.5 µM. The GI50 [28] was 16.1 µM, the TGI [28] was 29.9 µM and the GI50 [29] was 12.1 µM. The TGI [29] was 28.4 µM, the GI50 [30] was 18.5 µM and the TGI [30] was 32.6 µM. The GI50 [31] was 17.5 µM, the TGI [31] was 34.3 µM and the GI50 [32] was 15.4 µM. It also gave a TGI [32] of 30.7 µM, a GI50 [33] of 13.1 µM and a TGI [33] of 25.9 µM. For the same compound, the GI50 [34] was 17.7 µM, the TGI [34] was 31.6 µM and the GI50 [35] was 7.06 µM. For the same compound, the TGI [35] was 19.7 µM, the GI50 [36] was 13.2 µM and the TGI [36] was 26.3 µM. For the same compound, the GI50 [37] was 19.9 µM, the TGI [37] was 37.3 µM and the GI50 [38] was 15.8 µM. The TGI [38] was 29.4 µM, the GI50 [39] was 13.7 µM and the TGI [39] was 26.7 µM. It also gave a GI50 [40] of 12.2 µM, a TGI [40] of 24.7 µM and a GI50 [41] of 10.9 µM. It also gave a TGI [41] of 23 µM, a GI50 [42] of 13.9 µM and a TGI [42] of 27.4 µM. The GI50 [43] was 16.1 µM, the TGI [43] was 29.7 µM and the GI50 [44] was 19.8 µM. The TGI [44] was 39.5 µM, the GI50 [45] was 17.9 µM and the TGI [45] was 44.9 µM. For the same compound, the GI50 [46] was 6.82 µM, the TGI [46] was 19.6 µM and the GI50 [47] was 13.1 µM. For the same compound, the TGI [47] was 25.8 µM, the GI50 [48] was 16.3 µM and the TGI [48] was 32.3 µM. For the same compound, the GI50 [49] was 3.7 µM, the TGI [49] was 15.4 µM and the GI50 [50] was 15.8 µM. The TGI [50] was 30.7 µM, the GI50 [51] was 16.6 µM and the TGI [51] was 30.2 µM. For the same compound, the GI50 [52] was 15 µM, the TGI [52] was 28.2 µM and the GI50 [53] was 16.4 µM. For the same compound, the TGI [53] was 30 µM, the GI50 [54] was 13.4 µM and the TGI [54] was 30.3 µM. For the same compound, the GI50 [55] was 21.8 µM, the TGI [55] was 44.6 µM and the GI50 [56] was 5.58 µM. For the same compound, the TGI [56] was 18.7 µM, the GI50 [57] was 17.8 µM and the TGI [57] was 33.2 µM. It also gave a GI50 [58] of 15.4 µM and a TGI [58] of 28.7 µM.
